≈ marks a conversion by molar mass, not a printed value. Where “and” joins values, the source holds several entries; their conditions need not be identical. Equal entries are not always repeated. Where two headings read alike, the source gives them in different places.
Legend:
[1] = tested on: Candida albicans; assay: MIC100, clinical isolates of hospital-acquired pathogens (Table 7); format: cell-based; conditions: one table line per isolate, RPMI synthetic medium, in µg/mL
[2] = tested on: E. coli; assay: MIC100, modified NCCLS microbroth dilution (Table 6); format: cell-based; conditions: Escherichia coli
[3] = tested on: S. aureus and methicillin-resistant S. aureus (MRSA); assay: as above; format: cell-based; conditions: Staphylococcus aureus
[4] = tested on: B. anthracis; assay: microbe, parasite or virus in culture; format: cell-based, Bacillus anthracis
[5] = tested on: Y. pestis; assay: microbe, parasite or virus in culture; format: cell-based; conditions: Yersinia pestis, 30 h, read-out: MIC100 Y. pestis (30 hr)
[6] = tested on: S. aureus; format: cell-based; conditions: S. aureus passaged at 0.5x MIC100; by passage 16 (17 consecutive passages)
[7] = tested on: E. coli; assay: Modified NCCLS microbroth dilution MIC assay; format: cell-based; conditions: Escherichia coli; for MIC: 18 to 20 hours incubation, OD 600 nm
[8] = tested on: human erythrocytes; assay: Hemolysis of human erythrocytes (HC50); conditions: for Hemolysis HC50: one hour incubation, 50% hemoglobin release, Table 1
[9] = tested on: B. subtilis; assay: Modified NCCLS microbroth dilution MIC assay; conditions: Bacillus subtilis; for MIC: read-out: B. subtilis MIC
[10] = tested on: Aspergillus fumigatus; assay: Antifungal MIC/MFC, NCCLS M38-A; format: cell-based
Experimental: (§1) MIC endpoints were determined for A. fumigatus, P. funiculosum, C. globosum and T. virens according to current NCCLS guidelines defined for testing A. fumigatus (NCCLS M38-A, 2002). […] Amphotericin B was included in the screen with C. albicans as a positive control. All MIC testing was done in 96 well microtiter panels using RPMI 1640 (with glutamine and without bicarbonate) broth as a growth media. Incubation was at 35° C., and growth was read at 48, 72, (and for some slow growing fungal species, 96 hours). […] MFC (minimal fungicidal concentrations) endpoints were calculated using a modified methodology based on the NCCLS defined methodology for measuring minimal bactericidal concentrations (MBC). Experimentation to calculate MFCs was undertaken only for those organisms for which an MIC endpoint was satisfactorily calculated. MFCs are defined as the concentration required to reduce the number of viable organisms by at least 90%.

[11] = tested on: Chaetomium globosum; assay: Antifungal MIC/MFC, NCCLS M38-A; format: cell-based
Experimental: as §1

[12] = tested on: Penicillium funiculosum; assay: Antifungal MIC/MFC, NCCLS M38-A; format: cell-based
Experimental: as §1

[13] = tested on: Trichoderma virens; assay: Antifungal MIC/MFC, NCCLS M38-A; format: cell-based
Experimental: as §1

[14] = tested on: Enterococcus faecalis; assay: MIC100, clinical isolates of hospital-acquired pathogens (Table 7); format: cell-based; conditions: control strain ATCC 29212
[15] = tested on: Haemophilus influenzae; assay: as above; format: cell-based; conditions: Mueller Hinton+NAD+yeast extract+hematin
[16] = tested on: Streptococcus pyogenes; assay: as above; format: cell-based; conditions: Mueller Hinton+2-5% lysed horse blood, in µg/mL
[17] = tested on: Streptococcus pneumoniae; assay: as above; format: cell-based; conditions: for mic (MIC100) Streptococcus pneumoniae: clinical isolates, no phenotype given; for mic (MIC100) Streptococcus pneumoniae / mic (MIC100) Streptococcus pneumoniae PEN-R: Mueller Hinton+2-5% lysed horse blood, in µg/mL; for mic (MIC100) Streptococcus pneumoniae ATCC 49619: control strain ATCC 49619; for mic (MIC100) Streptococcus pneumoniae PEN-R: penicillin-resistant clinical isolates
[18] = concentration reducing viable organisms by at least 90%

## C[C@@H]1[C@H](O)[C@@H](C)/C=C/C=C/C=C/C=C/C=C/C=C/C=C/[C@H](O[C@@H]2O[C@H](C)[C@@H](O)[C@H](N)[C@@H]2O)C[C@@H]2O[C@](O)(C[C@@H](O)C[C@@H](O)[C@H](O)CC[C@@H](O)C[C@@H](O)CC(=O)O[C@H]1C)C[C@H](O)[C@H]2C(=O)O [AMP B, amphotericin B]
[1]
  mic (MIC100) Candida albicans: 2

## NCC[C@H](O)C(=O)N[C@@H]1C[C@H](N)[C@@H](O[C@H]2O[C@H](CN)[C@@H](O)[C@H](O)[C@H]2O)[C@H](O)[C@H]1O[C@H]1O[C@H](CO)[C@@H](O)[C@H](N)[C@H]1O [Amikacin, amikacin, reference compound]
[2]; strain ATCC25922, read-out: MIC100 E. coli ATCC25922
  MIC: 1 µg/mL (≈ 1.71 µM)
[2]; strain OC2530, read-out: MIC100 E. coli OC2530
  MIC: 2 µg/mL (≈ 3.42 µM)
[3]; ATCC 29213 / MRSA, strain ATCC29213 (Table 6), read-out: MIC100 S. aureus ATCC29213
  MIC: 2 µg/mL (≈ 3.42 µM)
[3]; MRSA, methicillin-resistant S. aureus OC2878, read-out: MIC100 MRSA OC2878
  MIC: 64 µg/mL (≈ 109 µM)

## O=C(O)c1cn(C2CC2)c2cc(N3CCNCC3)c(F)cc2c1=O [Ciprofloxacin, ciprofloxacin, reference compound]
[4]; Bacillus anthracis, 24 h, read-out: MIC100 B. anthracis (24 hr)
  MIC: 0.125 to 0.25 µg/mL (≈ 0.377 to 0.754 µM)
[4]; growth recorded at 2 hour intervals over 24 hours (FIG. 3)
  Time course of growth inhibition of Bacillus anthracis: transient cell growth was observed at early time points
[5]
  MIC: 0.0312 µg/mL (≈ 0.0942 µM)
[6]
  increase in MIC on serial passage: 125 fold

## N=C(N)NCCc1cc(Br)cc(C#Cc2cccc(C#Cc3cc(Br)cc(CCNC(=N)N)c3)c2)c1 [Compound 2]
[7]; read-out: MIC90 E. Coli
  MIC90: 1.6 µg/mL (≈ 2.64 µM)
[7]
  MIC: 3.2 µg/mL (≈ 5.28 µM)
[8]; human erythrocytes
  Hemolysis HC50: 8 µg/mL
[8]; human erythrocytes, Table 2
  HC50: 8.5 µg/mL
[8]; ratio of HC50 to E. coli MIC
  Selectivity HC50/MIC E.coli: 5.3
[9]
  MIC: 1.6 µg/mL (≈ 2.64 µM)
[9]; read-out: MIC90 B. subtilis
  MIC90: 1.6 µg/mL (≈ 2.64 µM)

## NCCNC(=O)c1cc(Br)cc(C#Cc2cccc(C#Cc3cc(Br)cc(C(=O)NCCN)c3)c2)c1 [Compound 4]
[7]
  MIC: 50 µg/mL (≈ 82.2 µM)
[8]; human erythrocytes
  Hemolysis HC50: 12.5 µg/mL
[9]
  MIC: 25 µg/mL (≈ 41.1 µM)

## CCCCCOc1c(I)cc(CN)cc1C#Cc1cccc(C#Cc2cc(CN)cc(I)c2OCCCCC)c1 [Compound 5]
[7]
  MIC: 25 µg/mL (≈ 32.9 µM)
[8]; human erythrocytes
  Hemolysis HC50: <12.5 µg/mL
[9]
  MIC: 100 µg/mL (≈ 131 µM)

## CCCCCOc1c(I)cc(CNC(=N)N)cc1C#Cc1cccc(C#Cc2cc(CNC(=N)N)cc(I)c2OCCCCC)c1 [Compound 6]
[7]
  MIC: 6.4 µg/mL (≈ 7.58 µM)
[8]; human erythrocytes
  Hemolysis HC50: 5 µg/mL
[9]
  MIC: 3.2 µg/mL (≈ 3.79 µM)

## OC(Cn1cncn1)(Cn1cncn1)c1ccc(F)cc1F [Fluconazole, reference compound]
[10]; RPMI 1640, 35° C.
  MIC Aspergillus fumigatus: >32/>32
[10]; [18]
  MFC Aspergillus fumigatus: >32/>32
[11]; RPMI 1640, 35° C.
  MIC Chaetomium globosum: 0.25/0.25
[11]; [18]
  MFC Chaetomium globosum: 0.25/0.25
[12]; RPMI 1640, 35° C.
  MIC Penicillium funiculosum: 4 µg/mL (≈ 13.1 µM)
[12]; [18]
  MFC Penicillium funiculosum: > 32 µg/mL
[13]; RPMI 1640, 35° C.
  MIC Trichoderma virens: >128/>128
[13]; [18]
  MFC Trichoderma virens: >128/>128

## C[C@H]1COc2c(N3CCN(C)CC3)c(F)cc3c(=O)c(C(=O)O)cn1c23 [LEVOFLOX, levofloxacin]
[1]
  mic (MIC100) Candida albicans: >8
[14]
  mic (MIC100) Enterococcus faecalis ATCC 29212: 0.5 µg/mL
[15]
  mic (MIC100) Haemophilus influenzae: ≦0.03
[16]
  mic (MIC100) Streptococcus pyogenes: 0.25 and 0.5
[17]
  mic (MIC100) Streptococcus pneumoniae: 1 and 0.5
  mic (MIC100) Streptococcus pneumoniae ATCC 49619: 0.5 µg/mL
  mic (MIC100) Streptococcus pneumoniae PEN-R: 0.5

## CC(=O)NC[C@H]1CN(c2ccc(N3CCOCC3)c(F)c2)C(=O)O1 [LINEZOLID, linezolid]
[1]
  mic (MIC100) Candida albicans: >8
[14]
  mic (MIC100) Enterococcus faecalis ATCC 29212: 2 µg/mL
[15]; in µg/mL
  mic (MIC100) Haemophilus influenzae: >8 and 8
[16]
  mic (MIC100) Streptococcus pyogenes: 1
[17]
  mic (MIC100) Streptococcus pneumoniae: 1
  mic (MIC100) Streptococcus pneumoniae ATCC 49619: 1 µg/mL
  mic (MIC100) Streptococcus pneumoniae PEN-R: 0.5 and 1

## CN[C@H](CC(C)C)C(=O)N[C@H]1C(=O)N[C@@H](CC(N)=O)C(=O)N[C@H]2C(=O)N[C@H]3C(=O)N[C@H](C(=O)N[C@H](C(=O)O)c4cc(O)cc(O)c4-c4cc3ccc4O)[C@H](O)c3ccc(c(Cl)c3)Oc3cc2cc(c3O[C@@H]2O[C@H](CO)[C@@H](O)[C@H](O)[C@H]2O[C@H]2C[C@](C)(N)[C@H](O)[C@H](C)O2)Oc2ccc(cc2Cl)[C@H]1O [VANCO, vancomycin]
[1]
  mic (MIC100) Candida albicans: >32
[14]
  mic (MIC100) Enterococcus faecalis ATCC 29212: 4 µg/mL
[15]; in µg/mL
  mic (MIC100) Haemophilus influenzae: >32
[16]
  mic (MIC100) Streptococcus pyogenes: 0.5
[17]
  mic (MIC100) Streptococcus pneumoniae: 0.5
  mic (MIC100) Streptococcus pneumoniae ATCC 49619: 0.5 µg/mL
  mic (MIC100) Streptococcus pneumoniae PEN-R: 0.5 and 1

## CCn1cc(C(=O)O)c(=O)c2cc(F)c(N3CCNCC3)cc21 [norfloxacin]
[6]
  increase in MIC on serial passage: 160 fold

Source: US8716530B2, “Facially amphiphilic polyaryl and polyarylalkynyl polymers and oligomers and uses thereof” (The Trustess of the University of Pennsylvania, priority 2004, dated 2014)
